Results reported in patent US11925678B2, “Methods for diagnosing and treating Alzheimer's disease” (Cava Healthcare Inc., priority 2011, dated 2024).
Read-outs that look alike come from different tables or passages of the source.

Columns and labels:
endothelial cells = details: cited from earlier work
animal models of AD = details: cited from earlier work
Tg2576 mice [1] = assay: Apoptosis by activated caspase-3 staining in immunized mice; format: in vivo, mouse
Method: (§1) Injections were performed i.p.
An anti-activated caspase-3 antibody was used as a marker of apoptosis FIG. 9. […] PBS immunized Tg2576 mice, both preventative and therapeutic, had significant activated caspase-3 staining within the FIG. 9a cortex and hippocampus (not shown) that tended to surround probable abeta plaques. […] The overall density of activated caspase-3 staining in these mice was noted to be lower than the Tg2576 treated with abeta. […] Cortex activated caspase-3 staining appear similar in the abeta immunized Tg2576 to the wild-type variants.

[2] = mouse, in vivo
Method: Mice were terminally anesthetized with ketamine/xylazine (100 mg/kg; 10 mg/kg) and perfused with PBS for 5 minutes. Brains were then rapidly excised, olfactory bulbs and cerebellum removed, weighed and post-fixed in 4% paraformaldehyde for four days at 4° C. The brains were then imbedded in paraffin and sectioned serially at 5 μm. […] Average brain weights were compared amongst the immunized mice by comparing brain to body mass ratios.

[3] = tested on: Tg2576 (Tg/+) and wild-type (+/+) mice; details: for tight junction abnormalities compared to PBS immunized controls (qualitative) / TJ expression in microvessels/capillaries (qualitative) / incidence of TJ disruption (percentage of blood vessels with abnormal TJ morphology) / TJ expression in larger vessels (qualitative): Tg2576 mice; for tight junction abnormalities compared to PBS immunized controls (qualitative): cortex and hippocampus; for TJ expression in microvessels/capillaries (qualitative): preventative and therapeutic immunization; for incidence of TJ disruption (percentage of blood vessels with abnormal TJ morphology): mean±SEM; for TJ expression in larger vessels (qualitative): preventative or therapeutic immunization
Method: (§2) Briefly, two separate vaccination strategies were carried out, therapeutic and preventative. Prior to immunization, mice were bled from the saphenous vein and serum collected. In the preventative approach, mice were vaccinated beginning at 6 weeks of age and sacrificed at 12 months. Mice used in the therapeutic strategy were vaccinated beginning at 11 months of age and sacrificed at 15 months. Abeta peptide was freshly prepared from lyophilized powder for each set of injections. For immunizations, 2 mg of abeta (human abeta1-40, Bachem) was added to 0.9 mL of deionized water and thoroughly mixed. Then 100 μL of 10×PBS was added to obtain a final 1×PBS concentration. The solution was vortexed and placed at 37° C. overnight until use the next day. Abeta1-40 (100 μg antigen per injection) or PBS (control) was mixed 1:1 (v/v) with complete Freund's adjuvant (CFA) for the first immunization. This was followed by a boost with abeta1-40 (100 μg) or PBS mixed 1:1 (v/v) with incomplete Freund's adjuvant (ICFA) at two weeks and monthly thereafter. From the fifth immunization onward, straight PBS or abeta were injected. Injections were performed i.p.
Dewaxed paraffin sections underwent antigen retrieval using a conventional stovetop pressure cooker using 20 mM Tris with 0.7 mM EDTA buffer (pH 9.0) at full steam for 2 minutes. Cooled slides were then incubated in blocking buffer (25% normal goat serum; 3% BSA; 0.3% Triton X-100, Sigma) for 1 hour at room temperature. Primary antibodies used included rabbit anti-ZO-1 (1:200, Invitrogen), mouse anti-ZO-1 (1:200, Invitrogen), rabbit anti-occludin (1:200, Invitrogen), rabbit anti-activated caspase-3 (1:1000, Imgenex), and mouse anti-human CD105 (1:20, DAKO). Primary antibody staining was performed overnight at 4C in staining buffer (10% normal goat serum; 3% BSA; 0.3% Triton X-100). Normal donkey serum was used when staining with goat primary antibodies. Secondary antibodies used were complimentary to the species of the primary conjugated with either Alexa Fluor dyes 488 or 568 (1:500, Invitrogen). Secondary antibody staining was performed at room temperature for 1 hour in staining buffer. TOTO-3 (1:10000, Invitrogen) was used for nuclear counterstaining. Sections were washed in PBS with 0.1% Tween-20 (Sigma) three times for 5 minutes each between staining steps. Stained sections were coverslipped using Fluoromount-G (Southern Biotech) and allowed to air dry in the dark overnight.
Brain sections were analyzed from paraffin blocks from every fifth section. Images taken on a Zeiss LSM510 Meta (Zeiss, Germany), were acquired with 16 slices, averaged four times, through the Z-plane using a 40×/1.3 oil-immersion Plan-Neofluor objective. The composite projected image was imported into Adobe Photoshop, at 600 dpi, and optimized for contrast and brightness. Quantitative analysis of tight junction morphology was analyzed according the methodology developed by Plumb et al. (Brain Pathol 12, 154-169). Confocal data sets represented approximately 100 cerebral blood vessels from both young and aged Tg2576 and littermate controls in the frontal cortex and hippocampus. Individual vessels were scored as either normal (1) or abnormal (0) for ZO-1 expression. Normal ZO-1 expression was judged as strong, continuous, intense and linear staining. In contrast, abnormal ZO-1 expression was judged as weak, punctate and/or discontinuous staining. […] To minimize the recording of incomplete or undulating vessels as abnormal, due to observed “gaps” in ZO-1 staining, evidence of vessel continuity was sought in the images. For example, the presence of stained nuclei (with TOTO-3) or punctate or diffuse ZO-1 remnants was used to localize the position of abnormal gaps along the vessel tract.

Tg2576 mice [4] = tested on: Tg2576 mice
Method: Briefly, two separate vaccination strategies were carried out, therapeutic and preventative. […] In the preventative approach, mice were vaccinated beginning at 6 weeks of age and sacrificed at 12 months. Mice used in the therapeutic strategy were vaccinated beginning at 11 months of age and sacrificed at 15 months. Abeta peptide was freshly prepared from lyophilized powder for each set of injections. For immunizations, 2 mg of abeta (human abeta1-40, Bachem) was added to 0.9 mL of deionized water and thoroughly mixed. Then 100 μL of 10×PBS was added to obtain a final 1×PBS concentration. The solution was vortexed and placed at 37° C. overnight until use the next day. Abeta1-40 (100 μg antigen per injection) or PBS (control) was mixed 1:1 (v/v) with complete Freund's adjuvant (CFA) for the first immunization. This was followed by a boost with abeta1-40 (100 μg) or PBS mixed 1:1 (v/v) with incomplete Freund's adjuvant (ICFA) at two weeks and monthly thereafter. From the fifth immunization onward, straight PBS or abeta were injected. Injections were performed i.p.
Aβ was imaged with a Zeiss LSM 710 Laser Scanning.

Tg2576 mice [5] = details: cited from earlier work
[6] = tested on: Tg2576 and wild-type mice
Method: as §2
Tg2576 and wild-type mice immunized, preventatively or therapeutically, with either abeta or PBS were assessed for cerebrovascular leakage and TJ abnormalities by confocal microscopy. Mouse albumin was used as a marker for vascular leakage and was visualized as diffuse gradient staining emanating away from vessels FIG. 8b (white arrowhead).

Tg2576 (Tg/+) mice = assay: Microvessel density (MVD) by CD105 staining in immunized mice; format: in vivo, mouse; details: for microvessel density (MVD), ratio of TFA to total area of imaged field: CD105 staining, mean±SEM
Method: as §1
Microvessel density (MVD) was quantified by confocal microscopy using the methods developed by Guo et al. (Angiogenesis 4, 187-191 with minor modifications). Using CD105 as a marker of angiogenic cerebrovasculature (Masliah et al. (2005) Neurology 64, 129-131), images of optimal fluorescent intensity were acquired and analyzed using the Zeiss LSM510 Meta software. Areas within the brain section containing high density (“hotspots”) (Bombois et al. (2007) Arch Neurol 64, 583-587) CD105 staining were imaged using the 20×/0.45 N-Achroplan objective using the confocal imaging parameters mentioned previously. The total fluorescence area (TFA) in μm^2 was integrated above background, by the software, for each hotspot. The average TFA from four different hotspots per mouse was quantified. The TFA was used as a numerical representation of the total microvessels stained by the CD105 antibody. The MVD of the imaged field was expressed as a ratio of the TFA to the total area of the image.
Microvessel density quantification: Microvessel density was quantified by confocal microscopy using the methods described previously Biron et al., PLoS ONE 6, e23789 (2011)). Using CD105 as a marker of angiogenic cerebrovasculature (Holley et al. Neurosci Lett 470, 65-70 (2010)), images of optimal fluorescent intensity were acquired and analyzed using the Zeiss LSM510 Meta software. Areas within the brain section containing high density (“hotspots”) CD105 staining were imaged using the 20×/0.45 N-Achroplan objective using the confocal imaging parameters mentioned previously. The total fluorescence area (TFA) in μm^2 was integrated above background, by the software, for each hotspot. The average TFA from four different hotspots per mouse was quantified. The TFA was used as a numerical representation of the total microvessels stained by the CD105 antibody. The microvascular density of the imaged field was expressed as a ratio of the TFA to the total area of the image.

[7] = Tg2576 mice, preventative and therapeutic

Molecule: C=C(c1ccc(C(=O)O)cc1)c1cc2c(cc1C)C(C)(C)CCC2(C)C [bexarotene]
- angiogenesis (proliferation, adhesion, invasion and migration of endothelial cells) (endothelial cells): inhibits angiogenesis
- memory performance (animal models of AD): increase memory performance
- plaque burden (animal models of AD): reduce plaque burden

Molecule: human abeta1-40
- distribution of activated caspase-3 staining (Tg2576 mice [1]; Tg2576 mice): hippocampal restricted caspase-3 staining
- activated caspase-3 staining (qualitative, overall) (Tg2576 mice [1]; Tg2576 mice (FIG. 9)): reduced activated caspase-3 staining
- activated caspase-3 staining in cortex (Tg2576 mice [1]; [7]): limited caspase-3 staining
- average brain to body weight ratio (difference between groups) [2]: did not reach significance
- percentage of abnormal vascular TJ expression ([3]; Example 3, Tg/+ mice immunized preventatively from 6 weeks of age, neocortex and hippocampus): ~10%
- percentage of abnormal vascular TJ expression (TJ pathology) ([3]; Example 3, Tg/+ mice immunized therapeutically at 11 months of age, neocortex and hippocampus): ~10%
- tight junction abnormalities compared to PBS immunized controls (qualitative) [3]: reduced tight junction abnormalities
- tight junction abnormalities compared to PBS immunized controls (qualitative) ([3]; listed as Abeta): markedly reduced TJ pathology
- tight junction abnormalities compared to PBS immunized controls (qualitative) ([3]; listed as Aβ): reduced tight junction abnormalities
- TJ expression in microvessels/capillaries (qualitative) [3]: normal TJs
- TJ expression in microvessels/capillaries (qualitative) ([3]; listed as Aβ): normal ZO-1 expression in the capillaries
- incidence of TJ disruption (percentage of blood vessels with abnormal TJ morphology) ([3]; preventative immunization (6 weeks to 12 months), cortex): 11.33±2.40%
- incidence of TJ disruption (percentage of blood vessels with abnormal TJ morphology) ([3]; preventative immunization, hippocampus): 11.91±1.73%
- TJ expression in larger vessels (qualitative) [3]: larger proportion of abnormal TJ expression
- TJ expression in larger vessels (qualitative) ([3]; listed as Aβ): some abnormal TJ pathology mainly in larger vessels
- incidence of TJ disruption (percentage of blood vessels with abnormal TJ morphology) ([3]; therapeutic immunization (11 to 15 months), cortex): 10.40±0.81%
- incidence of TJ disruption (percentage of blood vessels with abnormal TJ morphology) ([3]; therapeutic immunization, hippocampus): 11.00±2.26%
- abeta deposition in cerebral capillaries (Tg2576 mice [4]; Tg2576 mice): No abeta deposition
- parenchymal Aβ plaques (Tg2576 mice [4]; Tg/+ mice preventatively immunized): complete elimination
- Aβ plaque pathology (Tg2576 mice [4]; Tg/+ mice therapeutically treated): dramatic decrease
- Aβ deposits compared to Tg/+, PBS (qualitative) (Tg2576 mice [4]; Tg/+ mice, therapeutic or preventative (FIG. 14)): general reduction of Aβ deposits
- vascular abeta deposition in larger vessels (Tg2576 mice [4]; mouse, in vivo): Mild vascular abeta deposition
- plaque burdens and microgliosis (Tg2576 mice [5]; Tg2576 mice): significantly reduced
- immune response: anti-abeta antibody titres (Tg2576 mice [5]; mice immunized preventatively or therapeutically): increase in anti-abeta antibody titres
- global integrity of the BBB (Tg2576 mice [5]; post-abeta immunized Tg2576 mice): improves significantly
- overall vascular leakage (qualitative) ([6]; Tg2576 mice, preventatively immunized (FIG. 8)): overall reduced vascular leakage
- vascular leakage in larger vessels (mouse albumin) ([6]; mouse, in vivo): periodic vascular leakage
- vascular leakage in wild-type mice ([6]; mouse, in vivo): no vascular leakage
- microvessel density (MVD), ratio of TFA to total area of imaged field (Tg2576 (Tg/+) mice; Tg2576 mice immunized preventatively): 0.1972±0.0075
- microvessel density (MVD), ratio of TFA to total area of imaged field (Tg2576 (Tg/+) mice; Tg2576 mice immunized therapeutically (after disease onset)): 0.2180±0.0130
- microvascular density compared to PBS controls (qualitative) (Tg2576 (Tg/+) mice; [7]): reduced microvascular density
